Measurements as given in PubChem BioAssay (NCI).
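Tested at 5 concentrations; 48 h exposure; 96-well plates; endpoints linearly interpolated, else capped at highest concentration. The concentration for 50% growth inhibition is given as GI50. TGI: concentration producing complete growth inhibition.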

How the values were obtained:
Test in all cases: DTP human tumour cell line panel, 48 h
TK-10 renal = test system: TK-10 renal
SK-MEL-5 melanoma = test system: SK-MEL-5 melanoma
NCI-H460 lung = test system: NCI-H460 lung
U251 CNS = test system: U251 CNS
MALME-3M melanoma = test system: MALME-3M melanoma
CCRF-CEM leukemia = test system: CCRF-CEM leukemia
A498 renal = test system: A498 renal
A549 NSCLC = test system: A549 NSCLC
OVCAR-8 ovarian = test system: OVCAR-8 ovarian
NCI-H226 lung = test system: NCI-H226 lung

Row | SMILES | TGI (TK-10 renal) | TGI (SK-MEL-5 melanoma) | TGI (NCI-H460 lung) | TGI (U251 CNS) | TGI (MALME-3M melanoma) | TGI (CCRF-CEM leukemia) | TGI (A498 renal) | TGI (A549 NSCLC) | TGI (OVCAR-8 ovarian) | GI50 (NCI-H226 lung) | TGI (NCI-H226 lung) | GI50 (SK-MEL-5 melanoma) | GI50 (NCI-H460 lung) | GI50 (U251 CNS) | GI50 (MALME-3M melanoma) | GI50 (CCRF-CEM leukemia) | GI50 (A498 renal) | GI50 (A549 NSCLC) | GI50 (OVCAR-8 ovarian) | GI50 (TK-10 renal)
1 | COc1ccc(CN2CCC/C=C/CC(Cl)(Cl)C2=O)cc1 | > 100 µM | 35 µM | > 100 µM | > 100 µM | 87.7 µM | > 100 µM | 73.7 µM | > 100 µM | > 100 µM | – | – | – | – | – | – | – | – | – | – | –
2 | CCCCn1c(-c2ccc(C(=O)O/N=C(\N)c3ccc4c(c3)OCO4)cc2)nc(-c2ccccc2)c1-c1ccccc1 | – | 4.54 µM | 5.62 µM | 5.24 µM | 4.3 µM | 3.4 µM | 2.82 µM | 5.22 µM | > 100 µM | 3.93 µM | > 100 µM | 1.98 µM | 2.29 µM | 2 µM | 1.78 µM | 1.05 µM | 0.306 µM | 1.92 µM | 3.37 µM | –
3 | COC(=O)C1(C(=O)OC)CC(=O)c2cc3c(cc2-c2c(cc(OC)c(OC)c2OC)C1)OCO3 | > 211 µM | > 211 µM | > 211 µM | > 211 µM | > 211 µM | > 211 µM | – | > 211 µM | > 211 µM | – | > 211 µM | – | – | – | – | – | – | – | – | –
4 | CCC(=O)Nc1nc2c(ncn2C2OC(COC(=O)CC)C(OC(=O)CC)C2OC(=O)CC)c(=O)[nH]1 (stereo not given) | – | > 100 µM | > 100 µM | > 100 µM | > 100 µM | – | > 100 µM | > 100 µM | > 100 µM | – | > 100 µM | – | – | – | – | – | – | – | – | –
5 | CC(C)(C)C(=O)[CH-]C(=O)C(C)(C)C.CC(C)(C)C(=O)[CH-]C(=O)C(C)(C)C.CN(C)c1ccc([O-])cc1.CN(C)c1ccc([O-])cc1.[Ti+4] | – | > 100 µM | > 100 µM | > 100 µM | > 100 µM | > 100 µM | – | > 100 µM | > 100 µM | > 100 µM | > 100 µM | > 100 µM | > 100 µM | 43.1 µM | > 100 µM | > 100 µM | – | > 100 µM | > 100 µM | –
6 | N#CNC(N)=Nc1ccc(Cl)cc1 | > 100 µM | > 100 µM | > 100 µM | > 100 µM | > 100 µM | – | > 100 µM | > 100 µM | > 100 µM | – | > 100 µM | – | – | – | – | – | – | – | – | –
7 | Cn1c2c(c3ccccc31)CCN(CCN1CCN(c3cccc(Cl)c3)CC1)C2=O | > 100 µM | 62.6 µM | – | > 100 µM | – | > 100 µM | > 100 µM | > 100 µM | > 100 µM | – | – | – | – | – | – | – | – | – | – | –
8 | Oc1ccccc1-c1nn(CNc2ccccc2Cl)c(=S)o1 | > 100 µM | > 100 µM | > 100 µM | > 100 µM | – | 55.4 µM | > 100 µM | > 100 µM | > 100 µM | > 100 µM | > 100 µM | > 100 µM | 37.4 µM | 31.4 µM | – | 20.1 µM | > 100 µM | > 100 µM | > 100 µM | 42.2 µM
9 | CSC(=NCCc1c[nH]c2ccccc12)NC#N | > 100 µM | > 100 µM | > 100 µM | > 100 µM | – | > 100 µM | – | > 100 µM | > 100 µM | – | > 100 µM | – | – | – | – | – | – | – | – | –
10 | O=S(=O)(NCCCNc1nccc(-c2c(-c3ccc(F)cc3)nc3sccn23)n1)c1ccc2ccccc2c1 | > 100 µM | > 100 µM | > 100 µM | > 100 µM | – | > 100 µM | > 100 µM | > 100 µM | > 100 µM | 5.77 µM | > 100 µM | 4.17 µM | 3.74 µM | 4.87 µM | – | 3.13 µM | 3.01 µM | 4.43 µM | 4.63 µM | 7.54 µM
11 | O=c1cc(/C=C/c2ccccc2)[nH]c2cc3c(cc12)OCO3 | 29.4 µM | 12.3 µM | 10.6 µM | 7.18 µM | – | – | 9.87 µM | 21.4 µM | 19.9 µM | 2.91 µM | 10.8 µM | 2.17 µM | – | – | – | – | – | – | – | –
12 | Cc1ccc(NC(=O)c2cc(S(=O)(=O)N3C(=O)NC(=O)NS3(=O)=O)c(S)cc2Cl)cc1 | 71.3 µM | 32 µM | > 100 µM | > 100 µM | – | 40.3 µM | 68.5 µM | > 100 µM | 90.6 µM | 30.6 µM | 76.6 µM | 15.4 µM | 29.4 µM | 27.1 µM | – | 15.9 µM | 26.2 µM | 35.1 µM | 30.7 µM | 27.8 µM
13 | CSc1nnc(COc2ccc(Cl)cc2)o1 | > 100 µM | > 100 µM | > 100 µM | > 100 µM | > 100 µM | – | > 100 µM | > 100 µM | > 100 µM | – | – | – | – | – | – | – | – | – | – | –
14 | COc1ccc(C(=O)NCCN(C)C)c2nc3ccccc3nc12 | 76.7 µM | > 36.6 µM | – | 40.9 µM | 6.8 µM | – | 16.3 µM | > 100 µM | > 41.5 µM | – | 16.8 µM | – | – | – | – | – | – | – | – | –
15 | c1ccc(N2N=C(c3ccco3)CC2c2ccco2)cc1 (stereo not given) | > 100 µM | > 100 µM | > 100 µM | > 100 µM | > 100 µM | > 100 µM | – | > 100 µM | > 100 µM | – | > 100 µM | – | – | – | – | – | – | – | – | –
16 | CCCCCCCCCCCCCCCC[N+]1(C)CCOCC1 | 4.17 µM | – | 4.73 µM | 2.34 µM | 6.71 µM | 3.02 µM | 21.5 µM | 12.2 µM | 8.84 µM | – | – | – | 1.96 µM | 1.06 µM | 2.38 µM | 1.09 µM | 3.38 µM | 2.79 µM | 2.53 µM | 1.86 µM
17 | Nc1ncnc2c1ncn2CC(O)CO (stereo not given) | > 100 µM | > 100 µM | > 100 µM | – | > 100 µM | > 100 µM | > 100 µM | > 100 µM | > 100 µM | – | > 100 µM | – | – | – | – | – | – | – | – | –
18 | CCCCN(CCCC)C(=O)/C(CC(=O)c1cccc2ccccc12)=N\NC(=O)c1cc2ccccc2cc1O | > 100 µM | 32 µM | 44.2 µM | 72.3 µM | 35.4 µM | 25.3 µM | – | 64.8 µM | > 100 µM | – | 44.7 µM | – | – | – | – | – | – | – | – | –
19 | CCNC(=O)COc1ccc(Cl)cc1Cl | – | > 100 µM | > 100 µM | > 100 µM | > 100 µM | – | > 100 µM | > 100 µM | > 100 µM | – | > 100 µM | – | – | – | – | – | – | – | – | –
